Source: publication PMC8068036, “Synthesis of New Biscoumarin Derivatives, In Vitro Cholinesterase Inhibition, Molecular Modelling and Antiproliferative Effect in A549 Human Lung Carcinoma Cells” (International Journal of Molecular Sciences, 2021)
Entries after “also recorded” stand apart in the source; their conditions may differ. Read-outs that look alike come from different tables or passages of the source.

Legend:
in vitro = assay: in vitro
Procedure: The parallel artificial membrane permeability assay (PAMPA) is used as a non-cell-based in vitro assay to predict BBB penetration and is carried out in a coated 96-well membrane filter. In our assays, the filter membrane of the donor plate was coated with PBL (Polar Brain Lipid, Avanti, Denver, CO, USA) in dodecane (4 µL of 20 mg mL^−1 PBL in dodecane), and the acceptor well was filled with 300 µL of phosphate buffered saline (PBS) (pH 7.4; VA). The tested compounds were first dissolved in DMSO, and the resulting mixture was diluted with PBS (pH 7.4) to reach the final concentration (40–100 µM) in the donor well. […] Three hundred microliters of the donor solution (VD) were added to the donor wells, and the donor filter plate was carefully placed onto the acceptor plate to ensure that the coated membrane was “in contact” with both the donor solution and the acceptor buffer. The test compound diffused from the donor well through the polar brain lipid membrane (area = 0.28 cm^2) to the acceptor well. The concentration of the tested compound in both the donor and acceptor wells was assessed after 3, 4, 5, and 6 h of incubation, respectively, in quadruplicate using a UV plate reader Synergy HT (Biotek, Winooski, VT, USA) at the maximum absorption wavelength of each compound. Additionally, solutions at the theoretical equilibrium of the given compound (i.e., the theoretical concentration if the donor and acceptor compartment were simply combined) were also prepared.

A549 cells [1] = assay: Quantification of cell number and viability (eosin staining); assay type: cell-based, human; conditions: 35 and 65 μM, 24 h, eosin negative cells
Procedure: For the assessment of total cell numbers and viability within individual experimental groups, floating and adherent cells were harvested after treatment with the studied derivatives and evaluated using a Bürker chamber with eosin staining. A549 cells were plated at a density of 135 × 10^3 cell/well into a 6-well plate and treated with different concentrations of derivatives (35 and 65 µM) for 24 hrs. The total cell number was expressed as a percentage of the total cell number of the untreated control. Viability was expressed as a percentage of viable, eosin negative cells. The results are presented as the average percentage of cells from three independent experiments.

A549 cells [2] = assay: Colony-forming assay; assay type: cell-based, human; conditions: 65 μM, 24 h treatment, 7 days cultivation, vs untreated control
Procedure: For the colony-forming assay, floating and adherent cells were harvested together 24 h after treatment with the studied derivatives (35 and 65 µM). The cells were then counted using a Bürker chamber with eosin staining, and 500 viable cells per well were seeded in 6-well plates. After 7 days of cultivation under standard conditions, the cells in the plates were fixed and stained with 1% methylene blue dye in methanol. Visualized colonies were scanned and counted, and the results were evaluated as percentages of the untreated control. The results are presented as the average percentage of colonies from three independent experiments.

A549 cells [3] = assay: MTT assay, A549; assay type: cell-based, human; conditions: for IC50: Homo sapiens
Procedure: Human lung carcinoma cell line A549 and CCD-18Co colon fibroblasts were purchased from the American Type Culture Collection (ATCC, Rockville, MD, USA). The A549 cells were cultured in a complete RPMI-1640 medium (Sigma-Aldrich, St. Louis, MO, USA), and CCD-18Co cells were cultured in an MEM medium (PAN-Biotech GmbH, Aidenbach, Germany). The media were supplemented with 10% fetal bovine serum (FBS; Biosera, Nuaille, France) and antibiotics (1% Antibiotic-Antimycotic 100× and 50 × 10^−3 g l^−1 gentamicin; Biosera) at 37 °C, 95% humidity, and 5% CO2.
Prior to the selected treatments, cells were seeded on 12-well μ-Chamber slides (ibidi GmbH, Martinsried, Germany) and 6 and/or 96-well plates (TPP, Trasadingen, Switzerland) and left to settle for 24 h. The biscoumarin derivative solutions (at concentrations ranging from 10–100 µM) were then added to cells for 24 or 48 h, and analysis was subsequently performed.
MTT assays were performed in order to evaluate changes in the metabolic activity of cells that had occurred as a consequence of treatment with the biscoumarin derivatives. A549 cells (15 × 10^3 cells/cm^2) and CCD-18Co ([…]) were seeded in 96-well microplates. The cells were treated for 24 and 48 h with different concentrations (10, 25, 35, 50, 65, 75, and 100 µM) of the derivatives. After the treatment, the MTT (3-(4,5-dimethylthiazol-2-yl)-2,5-diphenyltertrazolium bromide) solution in PBS (5 mg mL^−1) was added to each well. […]. The absorbance of formazan (λ = 584 nm) was measured using a BMG FLUOstar Optima spectrometer (BMG Labtech GmbH, Offenburg, Germany). The results were evaluated as percentages of the absorbance of the untreated control. Results are presented as the average percentage of cells from three independent experiments. IC50 values for the derivatives were extrapolated from a sigmoidal fit (dose–response curve) to the metabolic activity data using OriginPro 8.5.0 SR1 (OriginLab Corp., Northampton, MA, USA).

A549 cells [4] = assay: Cell cycle analysis (flow cytometry, PI); assay type: cell-based, human; conditions: 35 and 65 µM, 24 h
Procedure: For flow cytometric analysis of the cell cycle distribution, floating and adherent cells were harvested together 24 h after treatment with the derivatives (35 and 65 µM), washed in cold PBS, fixed in cold 70% ethanol, and stored overnight at −20 °C. Prior to analysis, the cells were washed twice in PBS, resuspended in a staining solution (0.1% Triton X-100, 0.137 g L^−1 ribonuclease A and 0.02 g L^−1 propidium iodide—PI), and incubated in dark conditions at RT for 30 min. The DNA content was analyzed using a BD FACSCalibur flow cytometer (Becton Dickinson, San Jose, CA, USA) with a 488 nm argon-ion excitation laser, and fluorescence was detected using a 585/42 nm band-pass filter (FL-2). ModFit 3.0 software (Verity Software House, Topsham, ME, USA) was used to generate DNA content frequency histograms and to quantify the percentage of cells in the individual cell cycle phases. The results are presented as the average ratio of cells in the individual phase to all cells from three independent experiments.

Compound: COC(=O)Cc1cc(=O)oc2cc(OCCCCCCCCN3CCN(CCNC(=O)Cc4cc(=O)oc5cc(O)ccc45)CC3)ccc12 [12e, Methyl 2-[7-({2-[4-(2-{[2-(7-hydroxy-2-oxo-2H-4-chromenyl)acetyl]amino}etyl)piperazino]oktyl}oxy)-2-oxo-2H-4-chromenyl]acetate]
- BBB permeability prediction (in words) (in vitro; PAMPA): positive outcome; also recorded: high probability of BBB permeability; also recorded: high probability to cross the BBB
- Papp (in vitro; PAMPA, pH 7.4): 13.4 ± 3.56 ×10⁻⁶ cm/s
- CNS Predicted Availability (in vitro; classification from PAMPA-BBB Pe): CNS+ (CNS+: high BBB permeation predicted with Pe (×10^−6 cm s^−1) > 4.0)
- Cell viability of A549 (in words) (A549 cells [1]): reduced cell viability at a concentration of 65 μM
- Reduction in relative number of colonies (A549 cells [2]): 20%
- Metabolic activity of A549 cells (in words) (A549 cells [3]; 10 to 100 μM, 24 and 48 h): significant decrease
- IC50 (A549 cells [3]; A549, 24 h, read-out: IC50 A549 24 h): 49 µM
- IC50 (A549 cells [3]; A549, read-out: IC50 A549 48 h, 48 h): 35 µM
- Cell cycle distribution, G0/G1 phase (in words) (A549 cells [4]): increase in the percentage of the cell population in the G0/G1 phase
